Results reported in patent publication US5703236A, “Tetrahydrofuran antifungals” (Schering Corporation, priority 1995, dated 1997).

Test system: Cryptococcus neoformans
Assay: conventional broth dilution in vitro antifungal test, Cryptococcus neoformans
Assay type: cell-based
Conditions: Table Q, 3 strains
Experimental: (§1) The in vitro antifungal activity tests were performed via conventional broth dilution methods in Sabouraud dextrose broth ("SDB") medium and Eagles Minimum Essential Medium ("EMEM") against a large number of fungi. Minimum Inhibitory Concentrations ("MICs") were measured after 24, 48 and 72 hour tests. In many cases, Minimum Fungicidial Concentrations ("MFCS") were measured after 48 and 72 hours.

Row | SMILES | PERCENTAGE OF STRAINS WITH MICs ≤ 1 MCG/ML [%]
1 | CCC(C(C)O)n1ncn(-c2ccc(N3CCN(c4ccc(OCC5COC(Cn6cncn6)(c6ccc(F)cc6F)C5)cc4)CC3)cc2)c1=O (centres unmarked) [drawing 29] | 100
2 | CCC(C(C)O)n1ncn(-c2ccc(N3CCN(c4ccc(OCC5COC(Cn6cncn6)(c6ccc(F)cc6F)C5)cc4)CC3)cc2)c1=O (centres unmarked) [drawing 30] | 100
3 | CCC(C(C)O)n1ncn(-c2ccc(N3CCN(c4ccc(OCC5COC(Cn6cncn6)(c6ccc(F)cc6F)C5)cc4)CC3)cc2)c1=O (centres unmarked) [drawing 31] | 100

Same assay, conditions: Table R (MFCs), 3 strains

Row | SMILES | PERCENTAGE OF STRAINS WITH MICs ≤ 1 MCG/ML [%]
4 | OC(Cn1cncn1)(Cn1cncn1)c1ccc(F)cc1F [FLZ, fluconazole, reference compound] | 0
5 | CCC(C(C)O)n1ncn(-c2ccc(N3CCN(c4ccc(OCC5COC(Cn6cncn6)(c6ccc(F)cc6F)C5)cc4)CC3)cc2)c1=O (centres unmarked) [drawing 29] | 100
6 | CCC(C(C)O)n1ncn(-c2ccc(N3CCN(c4ccc(OCC5COC(Cn6cncn6)(c6ccc(F)cc6F)C5)cc4)CC3)cc2)c1=O (centres unmarked) [drawing 30] | 100
7 | CCC(C(C)O)n1ncn(-c2ccc(N3CCN(c4ccc(OCC5COC(Cn6cncn6)(c6ccc(F)cc6F)C5)cc4)CC3)cc2)c1=O (centres unmarked) [drawing 31] | 100

Same assay, conditions: Table S, 3 strains

Row | SMILES | MIC 90
8 | CCC(C(C)O)n1ncn(-c2ccc(N3CCN(c4ccc(OCC5COC(Cn6cncn6)(c6ccc(F)cc6F)C5)cc4)CC3)cc2)c1=O (centres unmarked) [drawing 29] | .05 MCG/ML
9 | CCC(C(C)O)n1ncn(-c2ccc(N3CCN(c4ccc(OCC5COC(Cn6cncn6)(c6ccc(F)cc6F)C5)cc4)CC3)cc2)c1=O (centres unmarked) [drawing 30] | .007 MCG/ML

Test system: Candida glabrata
Assay: conventional broth dilution in vitro antifungal test, Candida glabrata
Assay type: cell-based
Conditions: Table Q, 9 strains
Experimental: as §1

Row | SMILES | PERCENTAGE OF STRAINS WITH MICs ≤ 1 MCG/ML [%]
10 | CCC(C(C)O)n1ncn(-c2ccc(N3CCN(c4ccc(OCC5COC(Cn6cncn6)(c6ccc(F)cc6F)C5)cc4)CC3)cc2)c1=O (centres unmarked) [drawing 29] | 22
11 | CCC(C(C)O)n1ncn(-c2ccc(N3CCN(c4ccc(OCC5COC(Cn6cncn6)(c6ccc(F)cc6F)C5)cc4)CC3)cc2)c1=O (centres unmarked) [drawing 30] | 22
12 | CCC(C(C)O)n1ncn(-c2ccc(N3CCN(c4ccc(OCC5COC(Cn6cncn6)(c6ccc(F)cc6F)C5)cc4)CC3)cc2)c1=O (centres unmarked) [drawing 31] | 33

Same assay, conditions: Table R (MFCs), 9 strains

Row | SMILES | percentage of strains with MFCs ≤ 1 mcg/mL [%]
13 | OC(Cn1cncn1)(Cn1cncn1)c1ccc(F)cc1F [FLZ, fluconazole, reference compound] | 0
14 | CCC(C(C)O)n1ncn(-c2ccc(N3CCN(c4ccc(OCC5COC(Cn6cncn6)(c6ccc(F)cc6F)C5)cc4)CC3)cc2)c1=O (centres unmarked) [drawing 29] | 22
15 | CCC(C(C)O)n1ncn(-c2ccc(N3CCN(c4ccc(OCC5COC(Cn6cncn6)(c6ccc(F)cc6F)C5)cc4)CC3)cc2)c1=O (centres unmarked) [drawing 30] | 22
16 | CCC(C(C)O)n1ncn(-c2ccc(N3CCN(c4ccc(OCC5COC(Cn6cncn6)(c6ccc(F)cc6F)C5)cc4)CC3)cc2)c1=O (centres unmarked) [drawing 31] | 22

Test system: not listed separately
Assay: serum levels, half lives and tissue distribution following oral dosing
Assay type: in vivo
Conditions: mice, rats, dogs and monkeys, methyl cellulose formulation

Row | SMILES | serum levels compared to azoles of similar structure
17 | CCC(C(C)O)n1ncn(-c2ccc(N3CCN(c4ccc(OCC5COC(Cn6cncn6)(c6ccc(F)cc6F)C5)cc4)CC3)cc2)c1=O (centres unmarked) [drawing 28] | consistently higher serum levels

Test system: Aspergillus
Assay: conventional broth dilution in vitro antifungal test, Aspergillus
Assay type: cell-based, Aspergillus flavus, fumigatus and other species
Conditions: Table Q, 37 strains
Experimental: as §1

Row | SMILES | PERCENTAGE OF STRAINS WITH MICs ≤ 1 MCG/ML [%]
18 | CCC(C(C)O)n1ncn(-c2ccc(N3CCN(c4ccc(OCC5COC(Cn6cncn6)(c6ccc(F)cc6F)C5)cc4)CC3)cc2)c1=O (centres unmarked) [drawing 29] | 100
19 | CCC(C(C)O)n1ncn(-c2ccc(N3CCN(c4ccc(OCC5COC(Cn6cncn6)(c6ccc(F)cc6F)C5)cc4)CC3)cc2)c1=O (centres unmarked) [drawing 30] | 100
20 | CCC(C(C)O)n1ncn(-c2ccc(N3CCN(c4ccc(OCC5COC(Cn6cncn6)(c6ccc(F)cc6F)C5)cc4)CC3)cc2)c1=O (centres unmarked) [drawing 31] | 100

Same assay, conditions: Table R (MFCs), 37 strains

Row | SMILES | PERCENTAGE OF STRAINS WITH MICs ≤ 1 MCG/ML [%]
21 | OC(Cn1cncn1)(Cn1cncn1)c1ccc(F)cc1F [FLZ, fluconazole, reference compound] | 0
22 | CCC(C(C)O)n1ncn(-c2ccc(N3CCN(c4ccc(OCC5COC(Cn6cncn6)(c6ccc(F)cc6F)C5)cc4)CC3)cc2)c1=O (centres unmarked) [drawing 29] | 50
23 | CCC(C(C)O)n1ncn(-c2ccc(N3CCN(c4ccc(OCC5COC(Cn6cncn6)(c6ccc(F)cc6F)C5)cc4)CC3)cc2)c1=O (centres unmarked) [drawing 30] | 62
24 | CCC(C(C)O)n1ncn(-c2ccc(N3CCN(c4ccc(OCC5COC(Cn6cncn6)(c6ccc(F)cc6F)C5)cc4)CC3)cc2)c1=O (centres unmarked) [drawing 31] | 89

Test system: Candida tropicalis & stellatoidea
Assay: conventional broth dilution in vitro antifungal test, Candida tropicalis & stellatoidea
Assay type: cell-based
Conditions: Table Q, 5 strains
Experimental: as §1

Row | SMILES | PERCENTAGE OF STRAINS WITH MICs ≤ 1 MCG/ML [%]
25 | CCC(C(C)O)n1ncn(-c2ccc(N3CCN(c4ccc(OCC5COC(Cn6cncn6)(c6ccc(F)cc6F)C5)cc4)CC3)cc2)c1=O (centres unmarked) [drawing 29] | 100
26 | CCC(C(C)O)n1ncn(-c2ccc(N3CCN(c4ccc(OCC5COC(Cn6cncn6)(c6ccc(F)cc6F)C5)cc4)CC3)cc2)c1=O (centres unmarked) [drawing 30] | 100
27 | CCC(C(C)O)n1ncn(-c2ccc(N3CCN(c4ccc(OCC5COC(Cn6cncn6)(c6ccc(F)cc6F)C5)cc4)CC3)cc2)c1=O (centres unmarked) [drawing 31] | 100

Same assay, conditions: Table R (MFCs), 5 strains

Row | SMILES | PERCENTAGE OF STRAINS WITH MICs ≤ 1 MCG/ML [%]
28 | OC(Cn1cncn1)(Cn1cncn1)c1ccc(F)cc1F [FLZ, fluconazole, reference compound] | 100
29 | CCC(C(C)O)n1ncn(-c2ccc(N3CCN(c4ccc(OCC5COC(Cn6cncn6)(c6ccc(F)cc6F)C5)cc4)CC3)cc2)c1=O (centres unmarked) [drawing 29] | 100
30 | CCC(C(C)O)n1ncn(-c2ccc(N3CCN(c4ccc(OCC5COC(Cn6cncn6)(c6ccc(F)cc6F)C5)cc4)CC3)cc2)c1=O (centres unmarked) [drawing 30] | 100
31 | CCC(C(C)O)n1ncn(-c2ccc(N3CCN(c4ccc(OCC5COC(Cn6cncn6)(c6ccc(F)cc6F)C5)cc4)CC3)cc2)c1=O (centres unmarked) [drawing 31] | 100

Test system: Dermatophytes
Assay: conventional broth dilution in vitro antifungal test, dermatophytes
Assay type: cell-based, T. rubrum, T. mentagrophytes, and T. tonsurans
Conditions: Table Q, 6 strains

Row | SMILES | PERCENTAGE OF STRAINS WITH MICs ≤ 1 MCG/ML [%]
32 | CCC(C(C)O)n1ncn(-c2ccc(N3CCN(c4ccc(OCC5COC(Cn6cncn6)(c6ccc(F)cc6F)C5)cc4)CC3)cc2)c1=O (centres unmarked) [drawing 29] | 100
33 | CCC(C(C)O)n1ncn(-c2ccc(N3CCN(c4ccc(OCC5COC(Cn6cncn6)(c6ccc(F)cc6F)C5)cc4)CC3)cc2)c1=O (centres unmarked) [drawing 30] | 100
34 | CCC(C(C)O)n1ncn(-c2ccc(N3CCN(c4ccc(OCC5COC(Cn6cncn6)(c6ccc(F)cc6F)C5)cc4)CC3)cc2)c1=O (centres unmarked) [drawing 31] | 100

Same assay, conditions: Table R (MFCs), 6 strains

Row | SMILES | PERCENTAGE OF STRAINS WITH MICs ≤ 1 MCG/ML [%]
35 | OC(Cn1cncn1)(Cn1cncn1)c1ccc(F)cc1F [FLZ, fluconazole, reference compound] | 0
36 | CCC(C(C)O)n1ncn(-c2ccc(N3CCN(c4ccc(OCC5COC(Cn6cncn6)(c6ccc(F)cc6F)C5)cc4)CC3)cc2)c1=O (centres unmarked) [drawing 29] | 67
37 | CCC(C(C)O)n1ncn(-c2ccc(N3CCN(c4ccc(OCC5COC(Cn6cncn6)(c6ccc(F)cc6F)C5)cc4)CC3)cc2)c1=O (centres unmarked) [drawing 30] | 83
38 | CCC(C(C)O)n1ncn(-c2ccc(N3CCN(c4ccc(OCC5COC(Cn6cncn6)(c6ccc(F)cc6F)C5)cc4)CC3)cc2)c1=O (centres unmarked) [drawing 31] | 100

Test system: Candida albicans
Assay: conventional broth dilution in vitro antifungal test, Candida albicans
Assay type: cell-based
Conditions: Table Q, 26 strains
Experimental: as §1

Row | SMILES | PERCENTAGE OF STRAINS WITH MICs ≤ 1 MCG/ML [%]
39 | CCC(C(C)O)n1ncn(-c2ccc(N3CCN(c4ccc(OCC5COC(Cn6cncn6)(c6ccc(F)cc6F)C5)cc4)CC3)cc2)c1=O (centres unmarked) [drawing 29] | 100
40 | CCC(C(C)O)n1ncn(-c2ccc(N3CCN(c4ccc(OCC5COC(Cn6cncn6)(c6ccc(F)cc6F)C5)cc4)CC3)cc2)c1=O (centres unmarked) [drawing 30] | 100
41 | CCC(C(C)O)n1ncn(-c2ccc(N3CCN(c4ccc(OCC5COC(Cn6cncn6)(c6ccc(F)cc6F)C5)cc4)CC3)cc2)c1=O (centres unmarked) [drawing 31] | 100

Same assay, conditions: Table R (MFCs), 26 strains

Row | SMILES | percentage of strains with MFCs ≤ 1 mcg/mL [%]
42 | OC(Cn1cncn1)(Cn1cncn1)c1ccc(F)cc1F [FLZ, fluconazole, reference compound] | 100
43 | CCC(C(C)O)n1ncn(-c2ccc(N3CCN(c4ccc(OCC5COC(Cn6cncn6)(c6ccc(F)cc6F)C5)cc4)CC3)cc2)c1=O (centres unmarked) [drawing 29] | 100
44 | CCC(C(C)O)n1ncn(-c2ccc(N3CCN(c4ccc(OCC5COC(Cn6cncn6)(c6ccc(F)cc6F)C5)cc4)CC3)cc2)c1=O (centres unmarked) [drawing 30] | 100
45 | CCC(C(C)O)n1ncn(-c2ccc(N3CCN(c4ccc(OCC5COC(Cn6cncn6)(c6ccc(F)cc6F)C5)cc4)CC3)cc2)c1=O (centres unmarked) [drawing 31] | 100

Test system: cytochrome P-450 liver drug metabolizing enzymes
Assay: induction of cytochrome P-450 liver drug metabolizing enzymes, in vivo rat model
Conditions: oral administration

Row | SMILES | induction of cytochrome P-450 liver drug metabolizing enzymes
46 | CCC(C(C)O)n1ncn(-c2ccc(N3CCN(c4ccc(OCC5COC(Cn6cncn6)(c6ccc(F)cc6F)C5)cc4)CC3)cc2)c1=O (centres unmarked) [drawing 28] | not inducers of various cytochrome P-450 liver drug metabolizing enzymes

Test system: Candida krusei
Assay: conventional broth dilution in vitro antifungal test, Candida krusei
Assay type: cell-based
Conditions: Table Q, 16 strains
Experimental: as §1

Row | SMILES | PERCENTAGE OF STRAINS WITH MICs ≤ 1 MCG/ML [%]
47 | CCC(C(C)O)n1ncn(-c2ccc(N3CCN(c4ccc(OCC5COC(Cn6cncn6)(c6ccc(F)cc6F)C5)cc4)CC3)cc2)c1=O (centres unmarked) [drawing 29] | 100
48 | CCC(C(C)O)n1ncn(-c2ccc(N3CCN(c4ccc(OCC5COC(Cn6cncn6)(c6ccc(F)cc6F)C5)cc4)CC3)cc2)c1=O (centres unmarked) [drawing 30] | 100
49 | CCC(C(C)O)n1ncn(-c2ccc(N3CCN(c4ccc(OCC5COC(Cn6cncn6)(c6ccc(F)cc6F)C5)cc4)CC3)cc2)c1=O (centres unmarked) [drawing 31] | 100

Same assay, conditions: Table R (MFCs), 16 strains

Row | SMILES | PERCENTAGE OF STRAINS WITH MICs ≤ 1 MCG/ML [%]
50 | OC(Cn1cncn1)(Cn1cncn1)c1ccc(F)cc1F [FLZ, fluconazole, reference compound] | 0
51 | CCC(C(C)O)n1ncn(-c2ccc(N3CCN(c4ccc(OCC5COC(Cn6cncn6)(c6ccc(F)cc6F)C5)cc4)CC3)cc2)c1=O (centres unmarked) [drawing 29] | 88
52 | CCC(C(C)O)n1ncn(-c2ccc(N3CCN(c4ccc(OCC5COC(Cn6cncn6)(c6ccc(F)cc6F)C5)cc4)CC3)cc2)c1=O (centres unmarked) [drawing 30] | 94
53 | CCC(C(C)O)n1ncn(-c2ccc(N3CCN(c4ccc(OCC5COC(Cn6cncn6)(c6ccc(F)cc6F)C5)cc4)CC3)cc2)c1=O (centres unmarked) [drawing 31] | 100
